According to ChEMBL document CHEMBL4014275, “Discovery of benzofuran-3(2H)-one derivatives as novel DRAK2 inhibitors that protect islet β-cells from apoptosis” (Eur J Med Chem, 2017):
pIC50, pKd: −log10 of the molar value.

Legend:
[1] = target: T1, Serine/threonine-protein kinase 17B (Homo sapiens, UniProt O94768); experiment: Inhibition of DRAK2 (unknown origin)
T1 sequence (O94768 whole entry): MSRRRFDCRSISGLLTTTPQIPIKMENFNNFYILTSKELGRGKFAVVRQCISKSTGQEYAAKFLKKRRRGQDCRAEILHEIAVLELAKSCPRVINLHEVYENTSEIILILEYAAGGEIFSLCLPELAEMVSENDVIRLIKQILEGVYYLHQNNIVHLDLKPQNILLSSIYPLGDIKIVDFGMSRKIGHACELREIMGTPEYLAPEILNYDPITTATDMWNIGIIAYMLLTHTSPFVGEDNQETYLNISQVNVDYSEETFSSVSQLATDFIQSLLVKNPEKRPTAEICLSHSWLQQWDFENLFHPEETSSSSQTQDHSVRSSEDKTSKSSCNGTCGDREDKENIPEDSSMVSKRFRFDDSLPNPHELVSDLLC

[2] = target: T2, Serine/threonine-protein kinase 17A (Homo sapiens, UniProt Q9UEE5); experiment: Binding affinity to DRAK1 (unknown origin)
T2 sequence (Q9UEE5 whole entry): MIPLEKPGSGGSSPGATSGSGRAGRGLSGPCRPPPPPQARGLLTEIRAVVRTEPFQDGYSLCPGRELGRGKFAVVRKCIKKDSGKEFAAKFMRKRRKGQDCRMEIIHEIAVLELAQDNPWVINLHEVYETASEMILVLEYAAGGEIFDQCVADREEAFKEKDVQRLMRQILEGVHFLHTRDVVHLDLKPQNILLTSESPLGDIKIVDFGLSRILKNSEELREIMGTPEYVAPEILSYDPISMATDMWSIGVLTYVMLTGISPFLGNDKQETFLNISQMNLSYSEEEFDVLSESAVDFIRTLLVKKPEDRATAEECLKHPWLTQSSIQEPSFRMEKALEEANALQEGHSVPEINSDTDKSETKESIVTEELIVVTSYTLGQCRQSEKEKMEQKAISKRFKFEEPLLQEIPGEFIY

[3] = target: Death-associated protein kinase 1 (Homo sapiens, UniProt P53355); experiment: Binding affinity to DAPK1 (unknown origin)
[4] = target: Glycogen synthase kinase-3 beta (Homo sapiens, UniProt P49841); experiment: Inhibition of human GSK3beta
[5] = target: Tyrosine-protein kinase BTK (Homo sapiens, UniProt Q06187); experiment: Inhibition of human BTK
[6] = target: Death-associated protein kinase 3 (Homo sapiens, UniProt O43293); experiment: Inhibition of human DAPK3
[7] = target: T1, Serine/threonine-protein kinase 17B; experiment: Inhibition of recombinant GST-tagged DRAK2 (unknown origin) autophosphorylation after 2 hrs by ADP-glo assay
[8] = target: Death-associated protein kinase 2 (Homo sapiens, UniProt Q9UIK4); experiment: Inhibition of human DAPK2
[9] = target: T3, Aurora kinase A (Homo sapiens, UniProt O14965); experiment: Inhibition of human AURORA-A
T3 sequence (O14965 whole entry): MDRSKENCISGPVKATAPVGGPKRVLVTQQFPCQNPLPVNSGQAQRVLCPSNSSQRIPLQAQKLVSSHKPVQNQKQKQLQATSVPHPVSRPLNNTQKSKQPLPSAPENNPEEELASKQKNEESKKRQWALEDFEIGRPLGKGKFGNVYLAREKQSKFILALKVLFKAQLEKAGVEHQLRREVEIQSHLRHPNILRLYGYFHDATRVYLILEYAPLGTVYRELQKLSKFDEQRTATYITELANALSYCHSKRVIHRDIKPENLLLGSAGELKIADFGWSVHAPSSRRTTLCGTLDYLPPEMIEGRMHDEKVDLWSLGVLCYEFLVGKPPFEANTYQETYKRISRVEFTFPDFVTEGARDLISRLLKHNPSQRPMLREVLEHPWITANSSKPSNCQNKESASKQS

[10] = target: Tyrosine-protein kinase Blk (Homo sapiens, UniProt P51451); experiment: Inhibition of human BLK
[11] = target: T2, Serine/threonine-protein kinase 17A; experiment: Inhibition of human DRAK1
[12] = target: T4, Inhibitor of nuclear factor kappa-B kinase subunit beta (Homo sapiens, UniProt O14920); experiment: Inhibition of human IKKB
T4 sequence (O14920 whole entry): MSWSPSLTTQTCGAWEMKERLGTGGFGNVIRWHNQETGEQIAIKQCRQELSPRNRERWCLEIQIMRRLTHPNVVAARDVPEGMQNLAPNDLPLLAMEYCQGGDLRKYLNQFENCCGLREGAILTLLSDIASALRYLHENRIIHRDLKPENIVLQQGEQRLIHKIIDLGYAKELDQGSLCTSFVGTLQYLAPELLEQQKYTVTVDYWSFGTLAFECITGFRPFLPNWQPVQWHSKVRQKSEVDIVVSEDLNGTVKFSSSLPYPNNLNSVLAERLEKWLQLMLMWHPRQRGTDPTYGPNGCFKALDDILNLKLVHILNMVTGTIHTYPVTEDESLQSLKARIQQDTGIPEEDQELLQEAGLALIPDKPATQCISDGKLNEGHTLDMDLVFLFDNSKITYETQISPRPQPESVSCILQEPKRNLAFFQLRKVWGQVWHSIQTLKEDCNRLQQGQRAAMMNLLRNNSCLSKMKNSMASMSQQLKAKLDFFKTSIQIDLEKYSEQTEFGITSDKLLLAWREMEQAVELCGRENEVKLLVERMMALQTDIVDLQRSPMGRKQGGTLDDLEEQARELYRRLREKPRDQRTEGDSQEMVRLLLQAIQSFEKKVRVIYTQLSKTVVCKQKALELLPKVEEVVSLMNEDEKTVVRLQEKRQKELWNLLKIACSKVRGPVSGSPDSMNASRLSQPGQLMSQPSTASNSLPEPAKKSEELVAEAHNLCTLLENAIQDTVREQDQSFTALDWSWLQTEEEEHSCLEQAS

Chain of Tyrosine-protein kinase Blk (P51451 whole entry): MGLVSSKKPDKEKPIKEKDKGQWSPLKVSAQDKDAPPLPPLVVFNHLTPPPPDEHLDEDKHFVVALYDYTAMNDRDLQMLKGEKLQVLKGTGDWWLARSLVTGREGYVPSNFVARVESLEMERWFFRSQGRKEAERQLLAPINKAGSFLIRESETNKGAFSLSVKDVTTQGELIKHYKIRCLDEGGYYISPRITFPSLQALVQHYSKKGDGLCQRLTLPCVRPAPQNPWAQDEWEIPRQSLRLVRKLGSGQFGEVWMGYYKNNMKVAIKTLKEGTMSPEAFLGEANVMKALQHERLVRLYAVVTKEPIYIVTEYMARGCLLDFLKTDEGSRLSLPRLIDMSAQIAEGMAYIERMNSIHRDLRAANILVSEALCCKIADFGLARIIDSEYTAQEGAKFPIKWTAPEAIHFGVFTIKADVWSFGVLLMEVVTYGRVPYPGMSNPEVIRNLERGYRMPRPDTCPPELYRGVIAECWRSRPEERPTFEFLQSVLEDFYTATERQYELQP
Chain of Glycogen synthase kinase-3 beta (P49841 whole entry): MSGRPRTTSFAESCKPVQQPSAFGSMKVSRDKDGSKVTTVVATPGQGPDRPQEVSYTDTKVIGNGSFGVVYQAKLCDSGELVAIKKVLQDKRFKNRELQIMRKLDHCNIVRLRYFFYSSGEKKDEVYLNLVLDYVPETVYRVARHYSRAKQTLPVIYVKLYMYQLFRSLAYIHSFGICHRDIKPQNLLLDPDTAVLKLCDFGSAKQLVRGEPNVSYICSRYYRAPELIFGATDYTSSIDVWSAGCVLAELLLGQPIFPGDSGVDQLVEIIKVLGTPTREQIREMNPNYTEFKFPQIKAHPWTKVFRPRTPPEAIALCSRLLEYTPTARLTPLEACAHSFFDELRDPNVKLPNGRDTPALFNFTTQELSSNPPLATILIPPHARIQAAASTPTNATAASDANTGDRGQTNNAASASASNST
Chain of Death-associated protein kinase 2 (Q9UIK4 whole entry): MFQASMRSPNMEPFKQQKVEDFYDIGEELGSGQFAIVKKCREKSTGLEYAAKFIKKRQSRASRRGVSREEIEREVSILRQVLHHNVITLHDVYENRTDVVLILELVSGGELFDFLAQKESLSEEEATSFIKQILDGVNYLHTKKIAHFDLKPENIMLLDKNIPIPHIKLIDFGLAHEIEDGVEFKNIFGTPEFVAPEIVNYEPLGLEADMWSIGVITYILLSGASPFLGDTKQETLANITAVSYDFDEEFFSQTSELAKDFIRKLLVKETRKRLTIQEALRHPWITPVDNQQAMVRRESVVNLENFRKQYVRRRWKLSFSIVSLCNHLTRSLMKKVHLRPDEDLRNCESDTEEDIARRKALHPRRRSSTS
Chain of Death-associated protein kinase 1 (P53355 whole entry): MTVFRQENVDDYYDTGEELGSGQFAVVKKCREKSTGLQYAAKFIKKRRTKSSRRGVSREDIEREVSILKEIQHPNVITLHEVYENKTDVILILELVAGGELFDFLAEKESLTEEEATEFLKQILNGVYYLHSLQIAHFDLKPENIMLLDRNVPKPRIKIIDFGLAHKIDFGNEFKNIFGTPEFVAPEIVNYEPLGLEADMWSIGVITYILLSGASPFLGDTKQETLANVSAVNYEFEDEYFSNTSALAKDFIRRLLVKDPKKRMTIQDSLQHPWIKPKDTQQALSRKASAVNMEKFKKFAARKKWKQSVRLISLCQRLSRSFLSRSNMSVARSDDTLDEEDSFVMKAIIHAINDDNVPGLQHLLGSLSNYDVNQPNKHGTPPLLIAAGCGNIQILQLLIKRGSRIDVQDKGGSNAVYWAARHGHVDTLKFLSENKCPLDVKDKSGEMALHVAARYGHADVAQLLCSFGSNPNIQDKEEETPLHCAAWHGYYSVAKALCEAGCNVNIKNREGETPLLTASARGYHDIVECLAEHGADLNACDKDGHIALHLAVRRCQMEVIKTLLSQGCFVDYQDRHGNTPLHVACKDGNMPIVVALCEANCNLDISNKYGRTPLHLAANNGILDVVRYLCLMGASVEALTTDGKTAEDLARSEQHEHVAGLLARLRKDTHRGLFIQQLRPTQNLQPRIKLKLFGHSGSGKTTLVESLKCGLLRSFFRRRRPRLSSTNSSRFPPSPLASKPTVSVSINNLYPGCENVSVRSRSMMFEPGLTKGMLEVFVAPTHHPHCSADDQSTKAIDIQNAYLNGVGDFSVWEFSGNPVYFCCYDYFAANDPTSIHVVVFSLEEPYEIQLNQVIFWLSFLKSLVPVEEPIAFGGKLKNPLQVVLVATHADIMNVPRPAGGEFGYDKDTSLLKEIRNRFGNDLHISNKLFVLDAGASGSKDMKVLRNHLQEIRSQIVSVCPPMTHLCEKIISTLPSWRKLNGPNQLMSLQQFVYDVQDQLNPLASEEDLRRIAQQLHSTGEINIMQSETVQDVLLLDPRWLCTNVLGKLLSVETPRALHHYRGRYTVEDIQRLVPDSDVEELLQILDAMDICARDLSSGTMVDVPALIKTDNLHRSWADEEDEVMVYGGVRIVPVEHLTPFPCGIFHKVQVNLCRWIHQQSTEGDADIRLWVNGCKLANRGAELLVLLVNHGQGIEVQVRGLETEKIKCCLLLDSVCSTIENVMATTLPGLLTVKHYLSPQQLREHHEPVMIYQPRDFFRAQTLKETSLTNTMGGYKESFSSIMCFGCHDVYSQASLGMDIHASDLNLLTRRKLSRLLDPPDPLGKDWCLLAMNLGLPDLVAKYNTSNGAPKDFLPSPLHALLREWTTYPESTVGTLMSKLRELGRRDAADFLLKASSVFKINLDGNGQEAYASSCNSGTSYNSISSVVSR
Chain of Death-associated protein kinase 3 (O43293 whole entry): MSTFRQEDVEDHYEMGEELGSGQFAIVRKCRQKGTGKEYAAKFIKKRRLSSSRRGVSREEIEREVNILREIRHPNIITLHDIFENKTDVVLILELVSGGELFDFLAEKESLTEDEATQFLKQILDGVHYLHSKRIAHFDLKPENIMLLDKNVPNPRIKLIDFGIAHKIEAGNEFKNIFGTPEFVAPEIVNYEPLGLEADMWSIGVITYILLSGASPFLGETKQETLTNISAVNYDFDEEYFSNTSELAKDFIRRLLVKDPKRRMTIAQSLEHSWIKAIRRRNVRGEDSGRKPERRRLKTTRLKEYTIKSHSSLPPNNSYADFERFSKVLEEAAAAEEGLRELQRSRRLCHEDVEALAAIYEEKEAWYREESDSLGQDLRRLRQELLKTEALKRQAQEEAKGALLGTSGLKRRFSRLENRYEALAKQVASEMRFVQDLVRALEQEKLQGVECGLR
Chain of Tyrosine-protein kinase BTK (Q06187 whole entry): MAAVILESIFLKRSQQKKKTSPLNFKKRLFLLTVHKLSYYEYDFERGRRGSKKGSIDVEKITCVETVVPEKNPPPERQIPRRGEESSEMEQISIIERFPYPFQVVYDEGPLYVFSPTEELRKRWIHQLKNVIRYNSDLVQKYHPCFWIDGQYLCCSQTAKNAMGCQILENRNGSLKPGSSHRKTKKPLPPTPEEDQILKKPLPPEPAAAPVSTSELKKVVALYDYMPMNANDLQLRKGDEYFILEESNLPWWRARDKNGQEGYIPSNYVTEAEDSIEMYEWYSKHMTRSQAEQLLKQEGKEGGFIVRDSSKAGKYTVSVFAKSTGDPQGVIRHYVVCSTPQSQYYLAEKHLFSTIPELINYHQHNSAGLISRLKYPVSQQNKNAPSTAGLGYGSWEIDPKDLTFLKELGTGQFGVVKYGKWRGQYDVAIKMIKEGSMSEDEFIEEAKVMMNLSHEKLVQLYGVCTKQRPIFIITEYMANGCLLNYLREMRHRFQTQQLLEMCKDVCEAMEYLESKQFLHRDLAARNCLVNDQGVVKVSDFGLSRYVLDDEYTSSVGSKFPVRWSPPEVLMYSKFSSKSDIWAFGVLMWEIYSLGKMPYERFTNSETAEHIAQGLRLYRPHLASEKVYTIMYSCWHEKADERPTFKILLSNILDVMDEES

| Compound | pIC50 [1] | pKd [2] | pKd [3] | pIC50 [4] | pIC50 [5] | pIC50 [6] | pIC50 [7] | pIC50 [8] | pIC50 [9] | pIC50 [10] | pIC50 [11] | pIC50 [12] |
| --- | --- | --- | --- | --- | --- | --- | --- | --- | --- | --- | --- | --- |
| Nc1c(-c2n[nH]c(=S)o2)sc2ncc(-c3ccsc3)cc12 | 7.54 | 7.00 | 7.27 |  |  |  |  |  |  |  |  |  |
| CCOc1cc(/C=C2\Oc3ccc(OC)cc3C2=O)ccc1O |  |  |  | 5.30 | 5.30 | 4.72 | 6.48 | 4.64 | 5.00 | 5.28 | 5.85 | 5.21 |
